Results reported in ChEMBL document CHEMBL5506027, “Discovery of a Novel and Potent Cyclin-Dependent Kinase 8/19 (CDK8/19) Inhibitor for the Treatment of Cancer” (J Med Chem, 2024).
Blank lines part the entries; values can stand above or below the compound they belong to. Activity calls are given as the source filed them. The rule behind the calls is not given here.

What was measured:
[1] = target: CDK9/cyclin T1 (Homo sapiens) (UniProt O60563+P50750); assay: Inhibition of CDK9/cyclinT1 (unknown origin) at 1 uM by luminescence based assay relative to control; type: protein-complex assay
[2] = test system: Mus musculus; assay: In vivo inhibition of STAT3 phosphorylation in BALB/c nude mouse tumor xenografted with human MV4-11 cells at 10 mg/kg, po qd for 3 weeks and measured 8 to 24 hrs post last dose; type: functional, organism-based; conditions: time 22.0 day
[3] = target: Cyclin-dependent kinase 8 (Homo sapiens, UniProt P49336); assay: Inhibition of CDK8 (unknown origin) assessed as residual activity at 500 nM by ADP-Glo assay
[4] = Toxicity in BALB/c nude mouse xenografted with human MV4-11 cells assessed as change in body weight at 3 mg/kg, ip qd and measured twice a week for 3 weeks in presence of carboplatin; type: organism-based; conditions: in vivo, 504 h
[5] = target: Cyclin-dependent kinase 5/CDK5 activator 1 (Homo sapiens) (UniProt Q00535+Q15078); assay: Inhibition of CDK5/p35NCK (unknown origin) at 1 uM by luminescence based assay relative to control; type: protein-complex assay
[6] = Dose normalized AUC in mouse at 30 mg/kg, po measured upto 24 hrs by LC-MS/MS analysis; type: ADME, organism-based; conditions: in vivo
[7] = Volume of distribution at steady state in monkey at 1 mg/kg, iv measured upto 24 hrs by LC-MS/MS anlaysis; type: ADME, organism-based, Macaca mulatta; conditions: rhesus monkey, in vivo, read-out: Vdss
[8] = test system: MDA-MB-468; assay: Antitumor activity against human MDA-MB-468 cells xenografted in BALB/c nude mouse assessed as tumor growth inhibition at 3 mg/kg, po qd and measured twice a week for 3 weeks; type: functional, organism-based
[9] = Cmax in rat at 10 mg/kg, po measured upto 24 hrs by LC-MS/MS analysis; type: ADME, organism-based; conditions: in vivo
[10] = test system: Z-138; assay: Synergistic antitumor activity against human Z138 cells xenografted in CB17 SCID mouse assessed as tumor growth inhibition at 2.5 to 5 mg/kg, po administered once daily for 21 days in presence of rituximab; type: functional; conditions: dose 2.5-5 mg/kg, time 21 day
[11] = Tmax in monkey at 5 mg/kg, po measured upto 24 hrs by LC-MS/MS analysis; type: ADME, organism-based, Macaca mulatta; conditions: rhesus monkey, in vivo
[12] = target: Cyclin-dependent kinase 2/cyclin E1 (Homo sapiens) (UniProt P24864+P24941); assay: Inhibition of CDK2/Cyclin E1 (unknown origin) at 1 uM by luminescence based assay relative to control; type: protein-complex assay
[13] = target: CDK18/Cyclin Y (Homo sapiens) (UniProt Q07002+Q8ND76); assay: Inhibition of CDK18/cyclinY (unknown origin) at 1 uM by luminescence based assay relative to control; type: protein-complex assay
[14] = Oral bioavailability in mouse at 30 mg/kg measured upto 24 hrs by LC-MS/MS analysis; type: ADME, organism-based; conditions: in vivo
[15] = test system: MV4-11; assay: Antitumor activity against human MV4-11 cells xenografted in po dosed BALB/c nude mouse assessed as tumor growth inhibition measured twice a week for 3 weeks; type: functional, organism-based; conditions: dose 3-10 mg/kg
[16] = Half-life in monkey at 1 mg/kg, iv measured upto 24 hrs by LC-MS/MS anlaysis; type: ADME, organism-based, Macaca mulatta; conditions: rhesus monkey, in vivo
[17] = target: CDK2/Cyclin A2 (Homo sapiens) (UniProt P24941+P20248); assay: Inhibition of CDK2/CyclinA2 (unknown origin) at 1 uM by luminescence based assay relative to control; type: protein-complex assay
[18] = target: CDK6/cyclin D1 (Homo sapiens) (UniProt P24385+Q00534); assay: Inhibition of CDK6/cyclinD1 (unknown origin) at 1 uM by luminescence based assay relative to control; type: protein-complex assay
[19] = AUC(0 to 24 hrs) in mouse at 5 mg/kg, po measured upto 24 hrs by LC-MS/MS analysis; type: ADME, organism-based; conditions: in vivo
[20] = Oral bioavailability in mouse at 5 mg/kg measured upto 24 hrs by LC-MS/MS analysis; type: ADME, organism-based; conditions: in vivo
[21] = test system: Mus musculus; assay: In vivo inhibition of STAT3 phosphorylation in BALB/c nude mouse tumor xenografted with human MV4-11 cells at 60 mg/kg, po qd for 3 weeks and measured 8 to 24 hrs post last dose; type: functional, organism-based; conditions: time 22.0 day
[22] = Selectivity ratio of IC50 for CDK2/CyclinE1 (unknown origin) to IC50 for CDK8/Cyclin C (unknown origin)
[23] = Cmax in dog at 3 mg/kg, po measured upto 24 hrs by LC-MS/MS analysis; type: ADME, organism-based, Canis lupus familiaris; conditions: in vivo
[24] = Selectivity ratio of IC50 for CDK1/CyclinA2 (unknown origin) to IC50 for CDK8/Cyclin C (unknown origin)
[25] = Dose normalized AUC in rat at 5 mg/kg, po measured upto 24 hrs by LC-MS/MS analysis; type: ADME, organism-based; conditions: in vivo
[26] = Oral bioavailability in dog at 3 mg/kg measured upto 24 hrs by LC-MS/MS analysis; type: ADME, organism-based, Canis lupus familiaris; conditions: in vivo
[27] = AUC(0 to 24 hrs) in rat at 5 mg/kg, po measured upto 24 hrs by LC-MS/MS analysis; type: ADME, organism-based; conditions: in vivo
[28] = Dose normalized AUC in dog at 3 mg/kg, po measured upto 24 hrs by LC-MS/MS analysis; type: ADME, organism-based, Canis lupus familiaris; conditions: in vivo
[29] = Selectivity ratio of IC50 for CDK5/p25NCK (unknown origin) to IC50 for CDK8/Cyclin C (unknown origin)
[30] = Cmax in mouse at 5 mg/kg, po measured upto 24 hrs by LC-MS/MS analysis; type: ADME, organism-based; conditions: in vivo
[31] = Tmax in dog at 3 mg/kg, po measured upto 24 hrs by LC-MS/MS analysis; type: ADME, organism-based, Canis lupus familiaris; conditions: in vivo
[32] = Selectivity ratio of IC50 for CDK7/CyclinH/MAT1 (unknown origin) to IC50 for CDK8/Cyclin C (unknown origin)
[33] = Tmax in mouse at 5 mg/kg, po measured upto 24 hrs by LC-MS/MS analysis; type: ADME, organism-based; conditions: in vivo

Chain of Cyclin-dependent kinase 5/CDK5 activator 1 (Homo sapiens) (Q00535 whole entry): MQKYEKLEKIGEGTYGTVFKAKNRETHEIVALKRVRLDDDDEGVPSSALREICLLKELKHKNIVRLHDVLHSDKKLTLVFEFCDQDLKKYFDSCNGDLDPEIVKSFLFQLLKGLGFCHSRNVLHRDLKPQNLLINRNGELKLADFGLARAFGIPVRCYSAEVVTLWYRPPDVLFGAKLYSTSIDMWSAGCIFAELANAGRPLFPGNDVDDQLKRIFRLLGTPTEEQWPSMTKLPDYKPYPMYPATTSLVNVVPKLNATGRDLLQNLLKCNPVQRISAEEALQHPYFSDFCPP
Chain of Cyclin-dependent kinase 5/CDK5 activator 1 (Homo sapiens) (Q15078 99-307 partner limits assumed): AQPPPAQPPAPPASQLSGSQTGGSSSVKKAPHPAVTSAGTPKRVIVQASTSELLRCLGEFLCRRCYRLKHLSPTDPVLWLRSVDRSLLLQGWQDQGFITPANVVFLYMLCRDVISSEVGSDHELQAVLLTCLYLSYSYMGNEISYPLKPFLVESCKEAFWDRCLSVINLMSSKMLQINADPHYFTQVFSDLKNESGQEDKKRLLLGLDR
Chain of Cyclin-dependent kinase 8 (P49336 whole entry): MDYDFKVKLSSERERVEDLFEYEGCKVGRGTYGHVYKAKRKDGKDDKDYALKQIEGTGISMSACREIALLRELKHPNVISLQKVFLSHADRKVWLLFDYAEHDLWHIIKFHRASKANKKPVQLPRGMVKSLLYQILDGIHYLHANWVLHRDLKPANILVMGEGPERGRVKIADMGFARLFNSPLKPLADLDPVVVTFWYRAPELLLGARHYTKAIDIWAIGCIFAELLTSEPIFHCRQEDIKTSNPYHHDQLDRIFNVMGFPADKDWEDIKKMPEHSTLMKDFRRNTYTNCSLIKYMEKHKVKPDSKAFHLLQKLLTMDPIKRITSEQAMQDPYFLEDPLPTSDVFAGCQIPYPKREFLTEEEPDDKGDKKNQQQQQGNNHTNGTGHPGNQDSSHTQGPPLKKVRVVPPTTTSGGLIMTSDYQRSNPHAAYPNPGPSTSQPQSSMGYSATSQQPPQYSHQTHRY

inhibition [1]: 59.3%
Activity [3]: 14%
inhibition [5]: 75.3%
AUC/dose [6]: 796 ng·h/mL
Vd [7]: 7.05 L/kg
Cmax [9]: 190 ng/mL
Tmax [11]: 4 h
inhibition [12]: 94.8%
inhibition [13]: 65%
bioavailability [14]: 67%
half-life [16]: 7 h
inhibition [17]: 84.9%
inhibition [18]: 19.4%
Structure (SMILES): FC(F)c1c(Br)c(Br)cc2c1nc(N1CCNCC1)n2C1CCOCC1
inhibition [2]: Active
Activity [4]: Non-Toxic
Activity [8]: inactive
TGI [10]: 86%
Activity [15]: Dose-Dependent Effect

AUC(0-t) at 24 h [19]: 1350 ng·h/mL
F [20]: 155%
Ratio IC50 [22]: 0.1
Cmax [23]: 215 ng/mL
Ratio IC50 [24]: 1.2
AUC/dose [25]: 11.2 ng·h/mL
bioavailability [26]: 136%
AUC(0-t) at 24 h [27]: 56 ng·h/mL
AUC/dose [28]: 685 ng·h/mL
Ratio IC50 [29]: 0.1
Cmax [30]: 143 ng/mL
Tmax [31]: 4.18 h
Ratio IC50 [32]: 2.9
Tmax [33]: 1.3 h
Structure (SMILES): Cc1c(Br)c(Br)c2c3c1nc(N1CCNCC1)n3CCC2 [SEL-120 FREE BASE]
inhibition [21]: Active
